Measurements published in patent US4482565A, “β-Lactam-containing antibacterial agents and β-lactamase inhibitors” (Farmitalia Carlo Erba S.p.A., priority 1981, dated 1984).
Converted amounts (≈) assume the structure as drawn.

Legend:
Type in all cases: cell-based
Enterobacter cloacae 214 = experiment: in vitro antibacterial activity (MIC); conditions: lactamase producer, read-out: MIC (minimal inhibitory concentration)
Escherichia coli R 46 = experiment: in vitro antibacterial activity (MIC); conditions: R46; in vitro; Escherichia coli R 46; lactamase producer; read-out: MIC (minimal inhibitory concentration)
[1] = test system: Staphylococcus aureus 153; experiment: in vitro antibacterial activity (MIC); conditions: lactamase producer, read-out: MIC (minimal inhibitory concentration)
[2] = test system: Pseudomonas aeruginosa ATCC 2598; experiment: in vitro antibacterial activity (MIC); conditions: ATCC2598, collection strain, read-out: MIC (minimal inhibitory concentration)
[3] = test system: Salmonella montevideo F16; experiment: in vitro antibacterial activity (MIC); conditions: Salmonella enterica, read-out: MIC (minimal inhibitory concentration)
Escherichia coli R 57 B = experiment: in vitro antibacterial activity (MIC); conditions: R57B; in vitro; Escherichia coli R 57 B; lactamase producer; read-out: MIC (minimal inhibitory concentration)
Streptococcus pyogenes = experiment: in vitro antibacterial activity (MIC); conditions: in vitro, read-out: MIC (minimal inhibitory concentration)
Salmonella typhimurium [4] = experiment: in vitro antibacterial activity (MIC), collection strain; conditions: Salmonella enterica; in vitro; Salmonella Typhimurium; collection strain (second listing); read-out: MIC (minimal inhibitory concentration)
Escherichia coli R 6 K = experiment: in vitro antibacterial activity (MIC); conditions: R6K, read-out: MIC (minimal inhibitory concentration)
Escherichia coli B = experiment: in vitro antibacterial activity (MIC); conditions: in vitro; Escherichia coli B; collection strain; read-out: MIC (minimal inhibitory concentration)
[5] = test system: Staphylococcus aureus 209P; experiment: in vitro antibacterial activity (MIC); conditions: collection strain, read-out: MIC (minimal inhibitory concentration)
Pseudomonas aeruginosa = experiment: in vitro antibacterial activity (MIC); conditions: in vitro, read-out: MIC (minimal inhibitory concentration)
[6] = test system: Klebsiella aerogenes ATCC 1082 E; experiment: in vitro antibacterial activity (MIC); conditions: ATCC1082; in vitro; Klebsiella aerogenes ATCC 1082 E; lactamase producer; read-out: MIC (minimal inhibitory concentration)
[7] = test system: Klebsiella pneumoniae ATCC 10031; experiment: in vitro antibacterial activity (MIC); conditions: ATCC10031, Klebsiella pneumoniae ATCC 10031 (first listing), read-out: MIC (minimal inhibitory concentration)
Proteus mirabilis 525 = experiment: in vitro antibacterial activity (MIC); conditions: in vitro; Proteus mirabilis 525; read-out: MIC (minimal inhibitory concentration)
Proteus mirabilis V15 = experiment: in vitro antibacterial activity (MIC); conditions: read-out: MIC (minimal inhibitory concentration)
Klebsiella sp. R2 = experiment: in vitro antibacterial activity (MIC); conditions: read-out: MIC (minimal inhibitory concentration)
Escherichia coli R 997 = experiment: in vitro antibacterial activity (MIC); conditions: R997, read-out: MIC (minimal inhibitory concentration)
[8] = test system: Salmonella abortivoequina; experiment: in vitro antibacterial activity (MIC); conditions: collection strain, read-out: MIC (minimal inhibitory concentration)
[9] = test system: Enterobacter cloacae P 99; experiment: in vitro antibacterial activity (MIC); conditions: P99, read-out: MIC (minimal inhibitory concentration)
Escherichia coli RP 1 = experiment: in vitro antibacterial activity (MIC); conditions: RP1, read-out: MIC (minimal inhibitory concentration)
[10] = test system: Staphylococcus aureus PV2; experiment: in vitro antibacterial activity (MIC); conditions: read-out: MIC (minimal inhibitory concentration)
[11] = test system: Pseudomonas aeruginosa FI; experiment: in vitro antibacterial activity (MIC); conditions: collection strain, read-out: MIC (minimal inhibitory concentration)
Salmonella derby F14 = experiment: in vitro antibacterial activity (MIC); conditions: Salmonella enterica, read-out: MIC (minimal inhibitory concentration)
Escherichia coli P 453 = experiment: in vitro antibacterial activity (MIC); conditions: P453; in vitro; Escherichia coli P 453; lactamase producer; read-out: MIC (minimal inhibitory concentration)
Escherichia coli V23 = experiment: in vitro antibacterial activity (MIC); conditions: read-out: MIC (minimal inhibitory concentration)
[12] = test system: Klebsiella pneumoniae ATCC 10031; experiment: in vitro antibacterial activity (MIC), second listing of the strain; conditions: ATCC10031, collection strain (second listing), read-out: MIC (minimal inhibitory concentration)
Salmonella panamae F15 = experiment: in vitro antibacterial activity (MIC); conditions: in vitro; Salmonella panamae F15; read-out: MIC (minimal inhibitory concentration)
Salmonella typhimurium [13] = experiment: in vitro antibacterial activity (MIC); conditions: Salmonella enterica, Salmonella typhimurium (first listing), read-out: MIC (minimal inhibitory concentration)
Enterobacter sp V19 = experiment: in vitro antibacterial activity (MIC); conditions: read-out: MIC (minimal inhibitory concentration)
[14] = test system: Salmonella Saint Paul F20; experiment: in vitro antibacterial activity (MIC); conditions: read-out: MIC (minimal inhibitory concentration)
Escherichia coli B Cef R = experiment: in vitro antibacterial activity (MIC); conditions: read-out: MIC (minimal inhibitory concentration)
Escherichia coli V14 = experiment: in vitro antibacterial activity (MIC); conditions: read-out: MIC (minimal inhibitory concentration)
Shigella flexneri = experiment: in vitro antibacterial activity (MIC); conditions: read-out: MIC (minimal inhibitory concentration)
Method: A series of tests was carried out in vitro to compare the activities of (5R)-acetoxymethyl-2-acetoxymethyl-2-penum-3-carboxylate (Laboratory code FCE/20077/B40/341), (5R) acetoxymethyl-2-[(1-methyl-1H-tetrazol-5-yl)-thiomethyl]-2-penem-3-carboxylate (compound A), three reference compounds (ampicillin, cefoxitin, and thienamycin), and compound 387, which is (5R)-2-acetoxymethyl-6-(1-hydroxyethyl)-2-penem-3-carboxylic acid. The acetoxymethoxy ester of compound 387 is prepared in Example 51 and the sodium salt of the acid is prepared in Example 98 infra. Table 1 below reports the results of the above assays as MIC (minimal inhibitory concentration).

Proteus mirabilis = experiment: in vitro antibacterial activity (MIC), collection strain; conditions: in vitro, collection strain, read-out: MIC (minimal inhibitory concentration)
[15] = test system: Staphylococcus aureus Smith; experiment: in vitro antibacterial activity (MIC); conditions: collection strain, read-out: MIC (minimal inhibitory concentration)
Proteus vulgaris V15 = experiment: in vitro antibacterial activity (MIC); conditions: read-out: MIC (minimal inhibitory concentration)
Escherichia coli RGN 238 = experiment: in vitro antibacterial activity (MIC); conditions: RGN238, lactamase producer, read-out: MIC (minimal inhibitory concentration)

`CC1(C)S[C@@H]2[C@H](NC(=O)[C@H](N)c3ccccc3)C(=O)N2[C@H]1C(=O)O` [Ampicillin] showed an MIC (Enterobacter cloacae 214) greater than 100 µg/mL, an MIC (Escherichia coli R 46) of 25 µg/mL (≈ 71.5 µM) and an MIC [1] of 1.56 µg/mL (≈ 4.46 µM). For the same compound, the MIC [2] was greater than 100 µg/mL, the MIC [3] was 0.78 µg/mL (≈ 2.23 µM) and the MIC (Escherichia coli R 57 B) was 25 µg/mL (≈ 71.5 µM). It also gave an MIC (Streptococcus pyogenes) of 3.12 µg/mL (≈ 8.93 µM), an MIC (Salmonella typhimurium [4]) of 0.78 µg/mL (≈ 2.23 µM) and an MIC (Escherichia coli R 6 K) greater than 100 µg/mL. It also gave an MIC (Escherichia coli B) of 0.39 µg/mL (≈ 1.12 µM), an MIC [5] of no more than 0.19 µg/mL and an MIC (Pseudomonas aeruginosa) of 25 µg/mL (≈ 71.5 µM). For the same compound, the MIC [6] was greater than 100 µg/mL, the MIC [7] was 50 µg/mL (≈ 143 µM) and the MIC (Proteus mirabilis 525) was 0.39 µg/mL (≈ 1.12 µM). It also gave an MIC (Proteus mirabilis V15) of no more than 0.19 µg/mL, an MIC (Klebsiella sp. R2) of 50 µg/mL (≈ 143 µM) and an MIC (Escherichia coli R 997) greater than 100 µg/mL. The MIC [8] was 0.19 µg/mL (≈ 0.544 µM), the MIC [9] was greater than 100 µg/mL and the MIC (Escherichia coli RP 1) was greater than 100 µg/mL. The MIC [10] was no more than 0.19 µg/mL, the MIC [11] was greater than 100 µg/mL and the MIC (Salmonella derby F14) was 0.78 µg/mL (≈ 2.23 µM). The MIC (Escherichia coli P 453) was greater than 100 µg/mL, the MIC (Escherichia coli V23) was 3.12 µg/mL (≈ 8.93 µM) and the MIC [12] was 25 µg/mL (≈ 71.5 µM). The MIC (Salmonella panamae F15) was 0.78 µg/mL (≈ 2.23 µM), the MIC (Salmonella typhimurium [13]) was 0.78 µg/mL (≈ 2.23 µM) and the MIC (Enterobacter sp V19) was greater than 100 µg/mL. The MIC [14] was 0.78 µg/mL (≈ 2.23 µM), the MIC (Escherichia coli B Cef R) was greater than 100 µg/mL and the MIC (Escherichia coli V14) was 1.56 µg/mL (≈ 4.46 µM). It also gave an MIC (Shigella flexneri) of no more than 0.19 µg/mL, an MIC (Proteus mirabilis) greater than 100 µg/mL and an MIC [15] of no more than 0.19 µg/mL. It also gave an MIC (Proteus vulgaris V15) of 1.56 µg/mL (≈ 4.46 µM) and an MIC (Escherichia coli RGN 238) greater than 100 µg/mL.
